Results on one compound are retold here after patent publication US20160331775A1, “E-SELECTIN INHIBITION WORKS IN COMBINATION WITH LOW-MOLECULAR WEIGHT HEPARIN TO DECREASE VENOUS THROMBOSIS AND BLEEDING RISK” (THE REGENTS OF THE UNIVERSITY OF MICHIGAN, priority 2015, published 2016).

This data set is described as follows: tail vein bleeding time. The following applies: GMI-1271 alone, 20/kg IP BID; non-treated controls 53.8±7.5; not significantly elevated. It is filed as in vivo, mouse.

In the case of `CC[C@H]1C[C@@H](C(=O)NCCNC(=O)CCOCCOCCOCCOCCOCCOCCOCCOCCOCCOCCOCCOC)C[C@@H](O[C@@H]2O[C@H](CO)[C@H](O)[C@H](O[C@@H](CC3CCCCC3)C(=O)[O-])[C@H]2NC(C)=O)[C@@H]1O[C@@H]1O[C@@H](C)[C@@H](O)[C@@H](O)[C@@H]1O.[Na+]` [GMI-1271], the tail bleeding time was 67.00 ± 44 s.
